Experimental data reported in patent US7504422B2, “Polyamine compounds” (Taigen Biotechnology Co. Ltd., priority 2003, dated 2009).

Tests used:
Maximum Tolerated Dose = details: male, BALB/c, mouse, in vivo, intravenous; mice
[1] = tested on: hematopoietic stem cells CD34+ and EPCs CD133+; experiment: Stem cell and endothelial progenitor cell mobilization into peripheral blood; type: in vivo, BALB/c mice; details: for Fold increase at 1 mg/Kg, CD34+ / Fold increase at Maximum Tolerated Dose (MTD), CD34+: CD34+ cells in circulation; for Fold increase at 1 mg/Kg, CD34+ / Fold increase at Maximum Tolerated Dose (MTD), CD34+ / Fold increase at 1 mg/Kg, CD133+ / Fold increase at Maximum Tolerated Dose (MTD), CD133+: mice; for Fold increase at Maximum Tolerated Dose (MTD), CD34+ / Fold increase at Maximum Tolerated Dose (MTD), CD133+: MTD (125: 15 mg/kg, 136: 30 mg/Kg); for Fold increase at 1 mg/Kg, CD133+ / Fold increase at Maximum Tolerated Dose (MTD), CD133+: CD133+ cells in circulation; for Fold increase in circulation, CD34+ / Fold increase in circulation, CD133+: Table 2, 125 at 15 mg/Kg, G-CSF at 50 ug/kg/d × 4, alone or combined; for mobilization of hematopoietic stem cells CD34+ and EPCs CD133+ into peripheral blood: animal studies
Protocol: The in vivo efficacy of these two compounds in mobilizing stem cells was tested in male Special Pathogens Free (SPF) BALB/c mice. Different concentrations of a compound solution were prepared and administrated either intravenously of intramuscularly into mice. Mice receiving saline were used as a control. Whole blood was collected at 3 hours after i.v. injection or 6 hours after i.m. injection by cardiac puncture. Total leukocytes were resuspended in PBS and cell numbers were counted using trypan blue exclusion. Cells numbers were adjusted to 6×10^4 in 0.1 mL PBS for antibody staining. CXCR4^+ cells, CD34^+ cells, and CD133^+ cells were counted using surface staining and flow cytometry analysis. Data represents mean ±SEM of four independent experiments. Levels of cell number in different groups were compared using One-way ANOVA, differences were considered significant if P values were <0.05.

| Molecule | MTD (Maximum Tolerated Dose) | Fold increase at 1 mg/Kg, CD34+ [1] | Fold increase at Maximum Tolerated Dose (MTD), CD34+ [1] | Fold increase at 1 mg/Kg, CD133+ [1] | Fold increase at Maximum Tolerated Dose (MTD), CD133+ [1] | Fold increase in circulation, CD34+ [1] | Fold increase in circulation, CD133+ [1] | mobilization of hematopoietic stem cells CD34+ and EPCs CD133+ into peripheral blood [1] |
| --- | --- | --- | --- | --- | --- | --- | --- | --- |
| c1ccc(CNCCN(CCNCc2ccccn2)Cc2ccc(CNCc3nc4ccccc4[nH]3)cc2)nc1 [Compound 125, N-(4-{[(1H-benzoimidazol-2-ylmethyl)-amino]-methyl}-benzyl)-N′-pyridin-2-ylmethyl-N-{2-[(pyridin-2-ylmethyl)-amino]-ethyl}-ethane-1,2-diamine] | 15 mg/kg | 3.99 fold | 6.58 fold | 2.24 fold | 5.77 fold | 7.1 fold | 6.0 fold | rapidly mobilized |
| COc1ccc2[nH]c(CNCc3ccc(CN(CCNCc4ccccn4)CCNCc4ccccn4)cc3)nc2c1 [Compound 136, N1-(4-(((5-methoxy-1H-benzo[d]imidazol-2-yl)methylamino)methyl)benzyl)-N2-(pyridin-2-ylmethyl)-N1-(2-(pyridin-2-ylmethylamino)-ethyl)ethane-1,2-diamine] | 30 mg/kg | 2.63 fold | 5.66 fold | 3.17 fold | 8.49 fold |  |  | rapidly mobilized |
| G-CSF: granulocyte-colony stimulating factor; growth factor for stem cells and EPCs currently used in clinics (protein, UniProt P09919 31-207, looked up) Granulocyte …: TPLGPASSLPQSFLLKCLEQVRKIQGDGAALQEKLVSECATYKLCHPEELVLLGHSLGIPWAPLSSCPSQALQLAGCLSQLHSGLFLYQGLLQALEGISPELGPTLDTLQLDVADFATTIWQQMEELGMAPALQPTQGAMPAFASAFQRRAGGVLVASHLQSFLEVSYRVLRHLAQP |  |  |  |  |  | 8.4 fold | 26.2 fold |  |
